The assay deals with T1, rh integrin α4β7 (Homo sapiens, UniProt P13612+P26010).
T1 construct: purchased R&D Systems 5397-A30
T1 sequence (P13612 34-977 limits assumed): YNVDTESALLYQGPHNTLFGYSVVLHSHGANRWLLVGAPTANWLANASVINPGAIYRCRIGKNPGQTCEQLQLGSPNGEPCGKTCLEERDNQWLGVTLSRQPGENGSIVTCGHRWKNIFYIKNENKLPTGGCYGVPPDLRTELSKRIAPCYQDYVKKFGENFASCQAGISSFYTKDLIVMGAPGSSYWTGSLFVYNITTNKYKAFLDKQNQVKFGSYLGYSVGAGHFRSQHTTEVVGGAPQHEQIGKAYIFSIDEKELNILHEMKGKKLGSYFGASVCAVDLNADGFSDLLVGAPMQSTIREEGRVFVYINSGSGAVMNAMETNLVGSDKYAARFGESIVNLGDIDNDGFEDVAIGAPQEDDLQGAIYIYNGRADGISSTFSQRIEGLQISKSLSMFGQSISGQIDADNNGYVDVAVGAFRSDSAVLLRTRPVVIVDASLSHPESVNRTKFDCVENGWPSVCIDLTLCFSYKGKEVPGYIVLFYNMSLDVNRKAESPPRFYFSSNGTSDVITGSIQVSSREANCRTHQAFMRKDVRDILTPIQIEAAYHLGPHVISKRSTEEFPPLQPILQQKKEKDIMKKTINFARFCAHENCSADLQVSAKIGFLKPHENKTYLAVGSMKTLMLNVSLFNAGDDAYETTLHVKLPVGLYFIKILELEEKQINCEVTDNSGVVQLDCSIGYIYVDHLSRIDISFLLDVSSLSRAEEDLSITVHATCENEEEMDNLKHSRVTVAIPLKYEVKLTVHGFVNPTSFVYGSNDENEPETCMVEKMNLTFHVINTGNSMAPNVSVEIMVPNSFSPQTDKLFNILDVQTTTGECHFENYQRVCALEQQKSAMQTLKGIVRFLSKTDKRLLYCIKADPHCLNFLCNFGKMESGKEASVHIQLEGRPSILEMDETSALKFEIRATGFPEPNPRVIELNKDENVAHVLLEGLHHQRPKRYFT
T1 sequence (P26010 20-723 limits assumed): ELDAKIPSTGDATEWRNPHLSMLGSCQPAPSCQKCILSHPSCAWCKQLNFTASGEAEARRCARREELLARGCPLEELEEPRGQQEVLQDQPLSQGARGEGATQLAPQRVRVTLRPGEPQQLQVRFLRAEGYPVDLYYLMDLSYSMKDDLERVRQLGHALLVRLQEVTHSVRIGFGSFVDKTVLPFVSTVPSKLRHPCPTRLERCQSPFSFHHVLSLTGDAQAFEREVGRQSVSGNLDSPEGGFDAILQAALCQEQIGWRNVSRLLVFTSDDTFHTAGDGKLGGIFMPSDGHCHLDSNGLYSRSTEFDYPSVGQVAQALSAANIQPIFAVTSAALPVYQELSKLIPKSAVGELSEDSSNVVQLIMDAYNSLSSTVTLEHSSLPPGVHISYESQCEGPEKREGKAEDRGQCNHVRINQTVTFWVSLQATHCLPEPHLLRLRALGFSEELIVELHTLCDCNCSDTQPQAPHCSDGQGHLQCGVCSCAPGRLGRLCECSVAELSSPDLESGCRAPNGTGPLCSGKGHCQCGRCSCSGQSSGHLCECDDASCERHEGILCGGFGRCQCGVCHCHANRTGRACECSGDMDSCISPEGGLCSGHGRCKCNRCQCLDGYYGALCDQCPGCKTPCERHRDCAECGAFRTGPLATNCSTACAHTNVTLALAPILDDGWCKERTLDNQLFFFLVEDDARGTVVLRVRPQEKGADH
Kind of assay: α4β7-MAdCAM Competition ELISA. The conditions noted are these: read-out: ELISA A4B7. The assay is classed as binding. Summed up:
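Recombinant human α4β7 captured on nickel-coated plates, then incubated 1 h at room temperature with serially diluted peptides (final top 10 μM) and 10 nM final MAdCAM-1 in Tris pH 7.6 buffer with 1 mM MnCl2 or MgCl2. Bound MAdCAM-1 detected with anti-human IgG1-HRP and TMB, absorbance at 450 nm.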
In general terms: ELISA stands for enzyme-linked immunosorbent assay.

[1] abbreviates: thioether monomer peptides, Table 6.

Read-outs that look alike come from different tables or passages of the source. Where a SMILES comes first, the peptide text is derived from it.

Turning to `CC(C)C[C@@H]1NC(=O)[C@H]([C@@H](C)O)NC(=O)[C@H](CC(=O)O)NC(=O)[C@H](CO)NC(=O)[C@H](CCCNC(=N)N)N(C)C(=O)c2ccccc2CSC(C)(C)[C@@H](C(=O)N[C@@H](Cc2c[nH]c3ccccc23)C(=O)N[C@H](CCC(=O)O)C(=O)N[C@@H](CO)C(N)=O)NC1=O` [compound 100] (HELM PEPTIDE1{[meR].S.D.T.L.[Pen].W.[dE].S.[am]}|CHEM1{[O=C(c1ccccc1C[*:2])[*:1]]}$PEPTIDE1,CHEM1,1:R1-1:R1|PEPTIDE1,CHEM1,6:R3-1:R2$$$V2.0), the IC50 under setting [1] was below 25 nM.

Take `CC(C)C[C@@H]1NC(=O)[C@H]([C@@H](C)O)NC(=O)[C@H](CC(=O)O)NC(=O)[C@H](CO)NC(=O)[C@H](CCCNC(=N)N)N(C)C(=O)c2ccccc2CSC(C)(C)[C@@H](C(=O)N[C@@H](Cc2c[nH]c3ccccc23)C(=O)N[C@H](CCC(=O)O)C(=O)N[C@@H](Cc2ccccc2)C(N)=O)NC1=O` [compound 101] (HELM PEPTIDE1{[meR].S.D.T.L.[Pen].W.[dE].F.[am]}|CHEM1{[O=C(c1ccccc1C[*:2])[*:1]]}$PEPTIDE1,CHEM1,1:R1-1:R1|PEPTIDE1,CHEM1,6:R3-1:R2$$$V2.0): under setting [1], the IC50 was below 25 nM.

Turning to `CC(C)C[C@@H]1NC(=O)[C@H]([C@@H](C)O)NC(=O)[C@H](CC(=O)O)NC(=O)[C@H](CO)NC(=O)[C@H](CCCNC(=N)N)N(C)C(=O)c2ccccc2CSC(C)(C)[C@@H](C(=O)N[C@@H](Cc2c[nH]c3ccccc23)C(=O)N[C@H](CCC(=O)O)C(=O)N[C@@H](Cc2c[nH]cn2)C(N)=O)NC1=O` [compound 102] (HELM PEPTIDE1{[meR].S.D.T.L.[Pen].W.[dE].H.[am]}|CHEM1{[O=C(c1ccccc1C[*:2])[*:1]]}$PEPTIDE1,CHEM1,1:R1-1:R1|PEPTIDE1,CHEM1,6:R3-1:R2$$$V2.0), under setting [1], the IC50 is below 25 nM.

For `CC(C)C[C@@H]1NC(=O)[C@H]([C@@H](C)O)NC(=O)[C@H](CC(=O)O)NC(=O)[C@H](CO)NC(=O)[C@H](CCCNC(=N)N)N(C)C(=O)c2ccccc2CSC(C)(C)[C@@H](C(=O)N[C@@H](Cc2c[nH]c3ccccc23)C(=O)N[C@H](CCC(=O)O)C(=O)N[C@@H](Cc2ccc(O)cc2)C(N)=O)NC1=O` [compound 104] (HELM PEPTIDE1{[meR].S.D.T.L.[Pen].W.[dE].Y.[am]}|CHEM1{[O=C(c1ccccc1C[*:2])[*:1]]}$PEPTIDE1,CHEM1,1:R1-1:R1|PEPTIDE1,CHEM1,6:R3-1:R2$$$V2.0), the IC50 under setting [1] was below 25 nM.

As for `CC(C)C[C@@H]1NC(=O)[C@H]([C@@H](C)O)NC(=O)[C@H](CC(=O)O)NC(=O)[C@H](CO)NC(=O)[C@H](CCCNC(=N)N)N(C)C(=O)c2ccccc2CSC(C)(C)[C@@H](C(=O)N[C@@H](Cc2c[nH]c3ccccc23)C(=O)N[C@H](CCC(=O)O)C(=O)N[C@H](CO)C(N)=O)NC1=O` [compound 106] (HELM PEPTIDE1{[meR].S.D.T.L.[Pen].W.[dE].[dS].[am]}|CHEM1{[O=C(c1ccccc1C[*:2])[*:1]]}$PEPTIDE1,CHEM1,1:R1-1:R1|PEPTIDE1,CHEM1,6:R3-1:R2$$$V2.0), the IC50 under setting [1] is below 25 nM.

With `CC(C)C[C@@H]1NC(=O)[C@H]([C@@H](C)O)NC(=O)[C@H](CC(=O)O)NC(=O)[C@H](CO)NC(=O)[C@H](CCCNC(=N)N)N(C)C(=O)c2ccccc2CSC(C)(C)[C@@H](C(=O)N[C@@H](Cc2c[nH]c3ccccc23)C(=O)N[C@H](CCC(=O)O)C(=O)N[C@H](Cc2ccccc2)C(N)=O)NC1=O` [compound 107] (HELM PEPTIDE1{[meR].S.D.T.L.[Pen].W.[dE].[dF].[am]}|CHEM1{[O=C(c1ccccc1C[*:2])[*:1]]}$PEPTIDE1,CHEM1,1:R1-1:R1|PEPTIDE1,CHEM1,6:R3-1:R2$$$V2.0), the IC50 under setting [1] is below 25 nM.

As for `CC(C)C[C@@H]1NC(=O)[C@H]([C@@H](C)O)NC(=O)[C@H](CC(=O)O)NC(=O)[C@H](CO)NC(=O)[C@H](CCCNC(=N)N)N(C)C(=O)c2ccccc2CSC(C)(C)[C@@H](C(=O)N[C@@H](Cc2c[nH]c3ccccc23)C(=O)N[C@H](CCC(=O)O)C(=O)N[C@H](CCC(=O)O)C(N)=O)NC1=O` [compound 108] (HELM PEPTIDE1{[meR].S.D.T.L.[Pen].W.[dE].[dE].[am]}|CHEM1{[O=C(c1ccccc1C[*:2])[*:1]]}$PEPTIDE1,CHEM1,1:R1-1:R1|PEPTIDE1,CHEM1,6:R3-1:R2$$$V2.0), under setting [1], the IC50 was below 25 nM.

Turning to `CC(C)C[C@@H]1NC(=O)[C@H]([C@@H](C)O)NC(=O)[C@H](CC(=O)O)NC(=O)[C@H](CO)NC(=O)[C@H](CCCNC(=N)N)N(C)C(=O)c2ccccc2CSC(C)(C)[C@@H](C(=O)N[C@@H](Cc2c[nH]c3ccccc23)C(=O)N[C@H](CCC(=O)O)C(=O)N[C@H](Cc2ccc(O)cc2)C(N)=O)NC1=O` [compound 110] (HELM PEPTIDE1{[meR].S.D.T.L.[Pen].W.[dE].[dY].[am]}|CHEM1{[O=C(c1ccccc1C[*:2])[*:1]]}$PEPTIDE1,CHEM1,1:R1-1:R1|PEPTIDE1,CHEM1,6:R3-1:R2$$$V2.0), the IC50 under setting [1] was below 25 nM.

In the case of `CC(C)C[C@@H]1NC(=O)[C@H]([C@@H](C)O)NC(=O)[C@H](CC(=O)O)NC(=O)[C@H](CO)NC(=O)[C@H](CCCNC(=N)N)N(C)C(=O)c2ccccc2CSC(C)(C)[C@@H](C(=O)N[C@@H](Cc2c[nH]c3ccccc23)C(=O)N[C@H](CCC(=O)O)C(=O)N[C@@H](CCC(=O)O)C(N)=O)NC1=O` [compound 113] (HELM PEPTIDE1{[meR].S.D.T.L.[Pen].W.[dE].E.[am]}|CHEM1{[O=C(c1ccccc1C[*:2])[*:1]]}$PEPTIDE1,CHEM1,1:R1-1:R1|PEPTIDE1,CHEM1,6:R3-1:R2$$$V2.0), the IC50 under setting [1] was below 25 nM.

For `CC(C)C[C@@H]1NC(=O)[C@H]([C@@H](C)O)NC(=O)[C@H](CC(=O)O)NC(=O)[C@H](CO)NC(=O)[C@H](CCCNC(=N)N)N(C)C(=O)c2ccccc2CSC(C)(C)[C@@H](C(=O)N[C@@H](Cc2ccc3ccccc3c2)C(=O)N[C@H](CCC(=O)O)C(N)=O)NC1=O` [compound 114] (HELM PEPTIDE1{[meR].S.D.T.L.[Pen].[O=C([C@H](Cc1ccc2ccccc2c1)N[*:1])[*:2]].[dE].[am]}|CHEM1{[O=C(c1ccccc1C[*:2])[*:1]]}$PEPTIDE1,CHEM1,1:R1-1:R1|PEPTIDE1,CHEM1,6:R3-1:R2$$$V2.0), the IC50 under setting [1] was below 25 nM.

Regarding `CC(C)C[C@@H]1NC(=O)[C@H]([C@@H](C)O)NC(=O)[C@H](CC(=O)O)NC(=O)[C@H](CO)NC(=O)[C@H](CCCNC(=N)N)N(C)C(=O)c2ccccc2CSC(C)(C)[C@@H](C(=O)N[C@@H](Cc2ccc3ccccc3c2)C(N)=O)NC1=O` [compound 116] (HELM PEPTIDE1{[meR].S.D.T.L.[Pen].[O=C([C@H](Cc1ccc2ccccc2c1)N[*:1])[*:2]].[am]}|CHEM1{[O=C(c1ccccc1C[*:2])[*:1]]}$PEPTIDE1,CHEM1,1:R1-1:R1|PEPTIDE1,CHEM1,6:R3-1:R2$$$V2.0), under setting [1], the IC50 is below 25 nM.

Regarding `CC(C)C[C@@H]1NC(=O)[C@H]([C@@H](C)O)NC(=O)[C@H](CC(=O)O)NC(=O)[C@H](CO)NC(=O)[C@H](CCCNC(=N)N)N(C)C(=O)CSC[C@@H](C(=O)N[C@@H](Cc2c[nH]c3ccccc23)C(=O)N[C@H](CCCCNC(=O)COCC(=O)NCCCC[C@@H](NC(=O)[C@H](Cc2c[nH]c3ccccc23)NC(=O)[C@@H]2CSCC(=O)N(C)[C@@H](CCCNC(=N)N)C(=O)N[C@@H](CO)C(=O)N[C@@H](CC(=O)O)C(=O)N[C@@H]([C@@H](C)O)C(=O)N[C@@H](CC(C)C)C(=O)N2)C(N)=O)C(N)=O)NC1=O` [compound 143], under “thioether peptide dimers, Table 7”, the IC50 was below 25 nM.

The values are drawn from patent publication US20260217767A1, “NOVEL A4B7 THIOETHER PEPTIDE DIMER ANTAGONISTS” (Protagonist Therapeutics, Inc., priority 2014, published 2026).
